# Experimental data: patent publication US11046662B2, “2-aryl-4-hydroxy-1,3-thiazole derivatives useful as TRPM8-inhibitors in treatment of neuralgia, pain, COPD and asthma” (DOMPÉ FARMACEUTICI S.P.A., priority 2014, dated 2021)
# Experiments:
# [1] = tested on: mechanical allodynia; assay: Chronic constriction model of pain, mechanical allodynia (Dynamic Plantar Aesthesiometer); format: in vivo, male Sprague-Dawley rats; settings: oral 10 mg/kg
# Procedure: (§1) Neuropathic pain behavior will be induced by ligation of the sciatic nerve according to the method described by Bennett G J et al., Pain. 33: 87-107, 1988. Briefly, male Sprague-Dawley rats will be anaesthetized (100 mg/kg ketamine and 10 mg/kg xylazine i.p.) and the left sciatic nerve will be exposed at the level of the thigh by blunt dissection through the biceps femoris. Proximal to the sciatic's trifurcation, about 12 mm of nerve will be freed of adhering tissue and four ligatures will be loosely tied around it with about 1 mm spacing so that the epineural circulation will be preserved. The length of nerve thus affected was 6-8 mm long. The animals will be allowed to recover and used the day after the surgery. Sham animals represent rats operated but not ligated.
# (§2) All data were presented as the mean±SEM. Analysis of data was conducted using GraphPad Prism 4.01. Statistical analysis was performed by two-way ANOVA followed by Dunnett's test for multiple comparisons, as appropriate. Statistical significance was set at p<0.05.
# [2] = tested on: cold allodynia; assay: Chronic constriction model of pain, cold allodynia (drop of acetone); format: in vivo, male Sprague-Dawley rats; settings: oral 10 mg/kg
# Procedure: as §1, §2
# [3] = molecular target: human Muscarinic M2 (Homo sapiens (Human), UniProt P08172); assay: GPCR radioligand binding assay; settings: tested at 10 μM in duplicate
# [4] = molecular target: human Muscarinic M3 (Homo sapiens (Human), UniProt P20309); assay: GPCR radioligand binding assay; settings: tested at 10 μM in duplicate
# [5] = molecular target: human Adrenergic β1 (Homo sapiens (Human), UniProt P08588); assay: GPCR radioligand binding assay; settings: tested at 10 μM in duplicate
# [6] = molecular target: human Adrenergic β2 (Homo sapiens (Human), UniProt P07550); assay: GPCR radioligand binding assay; settings: tested at 10 μM in duplicate
# [7] = molecular target: human Adrenergic α1A (Homo sapiens (Human), UniProt P35348); assay: GPCR radioligand binding assay; settings: tested at 10 μM in duplicate
# [8] = molecular target: human Adrenergic α2A (Homo sapiens (Human), UniProt P08913); assay: GPCR radioligand binding assay; settings: tested at 10 μM in duplicate
# [9] = molecular target: human Serotoninergic 5-HT1A (Homo sapiens (Human), UniProt P08908); assay: GPCR radioligand binding assay; settings: tested at 10 μM in duplicate
# [10] = molecular target: human Histamine H1 (Homo sapiens (Human), UniProt P35367); assay: GPCR radioligand binding assay; settings: tested at 10 μM in duplicate
# [11] = molecular target: human Histamine H2 (Homo sapiens (Human), UniProt P25021); assay: GPCR radioligand binding assay; settings: tested at 10 μM in duplicate
# [12] = molecular target: human Cannabinoid CB1 (Homo sapiens (Human), UniProt P21554); assay: GPCR radioligand binding assay; settings: tested at 10 μM in duplicate
# [13] = molecular target: human Cannabinoid CB2 (Homo sapiens (Human), UniProt P34972); assay: GPCR radioligand binding assay; settings: tested at 10 μM in duplicate
# [14] = molecular target: human Bradykinin B1 (Homo sapiens (Human), UniProt P46663); assay: GPCR radioligand binding assay; settings: tested at 10 μM in duplicate
# [15] = molecular target: human Bradykinin B2 (Homo sapiens (Human), UniProt P30411); assay: GPCR radioligand binding assay; settings: tested at 10 μM in duplicate
# [16] = molecular target: human Dopamine D2S (Homo sapiens (Human), UniProt P14416); assay: GPCR radioligand binding assay; settings: tested at 10 μM in duplicate
# [17] = molecular target: human Dopamine D3 (Homo sapiens (Human), UniProt P35462); assay: GPCR radioligand binding assay; settings: tested at 10 μM in duplicate
# [18] = molecular target: human Opioid δ2 (DOP) (Homo sapiens (Human), UniProt P41143); assay: GPCR radioligand binding assay; settings: tested at 10 μM in duplicate
# [19] = molecular target: human Opioid K (KOP) (Homo sapiens (Human), UniProt P41145); assay: GPCR radioligand binding assay; settings: tested at 10 μM in duplicate
# [20] = molecular target: human Opioid μ (MOP) (Homo sapiens (Human), UniProt P35372); assay: GPCR radioligand binding assay; settings: tested at 10 μM in duplicate
# [21] = molecular target: human Opioid NOP (ORL1) (Homo sapiens (Human), UniProt P41146); assay: GPCR radioligand binding assay; settings: tested at 10 μM in duplicate
# [22] = molecular target: human NK1 (Homo sapiens (Human), UniProt P25103); assay: GPCR radioligand binding assay; settings: tested at 10 μM in duplicate
# [23] = molecular target: TRPV1 (Homo sapiens (Human), UniProt Q8NER1); assay: TRPV1 antagonist calcium influx assay; format: cell-based; settings: agonist capsaicin = 100%, ruthenium red = 0
# Text: The signal elicited in the presence of the positive control agonist (capsaicin) was set to 100% and the signal in the presence of the antagonist (ruthenium red) was set to 0. […] The signal elicited in the presence of the positive control agonist (GSK1016790A) was set to 100% and the signal in the presence of the antagonist (ruthenium red) was set to 0. […] The signal elicited in the presence of the positive control agonist (allyl isothiocyanate, AITC) was set to 100% and the signal in the presence of the antagonist (ruthenium red) was set to 0.
# [24] = molecular target: hERG channel (Homo sapiens (Human), UniProt Q12809); assay: hERG inhibition
# [25] = molecular target: CYP3A4 (Homo sapiens (Human), UniProt P08684); assay: CYP450 Inhibition; format: in vitro ADME; settings: at 10 μM
# [26] = molecular target: CYP1A2 (Homo sapiens (Human), UniProt P05177); assay: CYP450 Inhibition; format: in vitro ADME; settings: at 10 μM
# [27] = molecular target: CYP2D6 (Homo sapiens (Human), UniProt P10635); assay: CYP450 Inhibition; format: in vitro ADME; settings: at 10 μM
# [28] = molecular target: CYP2C9 (Homo sapiens (Human), UniProt P11712); assay: CYP450 Inhibition; format: in vitro ADME; settings: at 10 μM
# [29] = molecular target: CYP2C19 (Homo sapiens (Human), UniProt P33261); assay: CYP450 Inhibition; format: in vitro ADME; settings: at 10 μM
# [30] = Plasma Protein Binding, human; format: in vitro ADME
# [31] = Plasma Protein Binding, rat; format: in vitro ADME
# [32] = CLint (rat); format: in vitro ADME
# [33] = Rat Plasma Stability; format: in vitro ADME
# [34] = Pharmacokinetic profile, intravenous and oral administration; format: in vivo
# Procedure: The ADME properties and the pharmacokinetic profile of compound 2 were evaluated.
# [35] = tested on: human cytochrome isoform; assay: Effect towards human cytochrome isoforms; format: in vitro ADME; settings: at the maximal concentration of 10 μM
# [36] = physchem
# [37] = molecular target: human TRPM8 (Homo sapiens (Human), UniProt Q7Z2W7); assay: HTS cellular-based calcium assay for human TRPM8 antagonists (FLIPR TETRA); settings: HEK293/hTRPM8 cells, agonist Cooling Agent 10 at EC80, Ca2+ fluorescence
# [38] = day 7 and day 14, 3 hours and 5 hours post-dose
# [39] = day 7 and day 14 after nerve injury, 3 hours after treatment
# [40] = oral administration, PO 10 mg/kg
# [41] = plasma, intravenous administration, IV 5 mg/kg
# [42] = plasma, oral administration, PO 10 mg/kg
# Sequence of hERG channel (Q12809 whole entry): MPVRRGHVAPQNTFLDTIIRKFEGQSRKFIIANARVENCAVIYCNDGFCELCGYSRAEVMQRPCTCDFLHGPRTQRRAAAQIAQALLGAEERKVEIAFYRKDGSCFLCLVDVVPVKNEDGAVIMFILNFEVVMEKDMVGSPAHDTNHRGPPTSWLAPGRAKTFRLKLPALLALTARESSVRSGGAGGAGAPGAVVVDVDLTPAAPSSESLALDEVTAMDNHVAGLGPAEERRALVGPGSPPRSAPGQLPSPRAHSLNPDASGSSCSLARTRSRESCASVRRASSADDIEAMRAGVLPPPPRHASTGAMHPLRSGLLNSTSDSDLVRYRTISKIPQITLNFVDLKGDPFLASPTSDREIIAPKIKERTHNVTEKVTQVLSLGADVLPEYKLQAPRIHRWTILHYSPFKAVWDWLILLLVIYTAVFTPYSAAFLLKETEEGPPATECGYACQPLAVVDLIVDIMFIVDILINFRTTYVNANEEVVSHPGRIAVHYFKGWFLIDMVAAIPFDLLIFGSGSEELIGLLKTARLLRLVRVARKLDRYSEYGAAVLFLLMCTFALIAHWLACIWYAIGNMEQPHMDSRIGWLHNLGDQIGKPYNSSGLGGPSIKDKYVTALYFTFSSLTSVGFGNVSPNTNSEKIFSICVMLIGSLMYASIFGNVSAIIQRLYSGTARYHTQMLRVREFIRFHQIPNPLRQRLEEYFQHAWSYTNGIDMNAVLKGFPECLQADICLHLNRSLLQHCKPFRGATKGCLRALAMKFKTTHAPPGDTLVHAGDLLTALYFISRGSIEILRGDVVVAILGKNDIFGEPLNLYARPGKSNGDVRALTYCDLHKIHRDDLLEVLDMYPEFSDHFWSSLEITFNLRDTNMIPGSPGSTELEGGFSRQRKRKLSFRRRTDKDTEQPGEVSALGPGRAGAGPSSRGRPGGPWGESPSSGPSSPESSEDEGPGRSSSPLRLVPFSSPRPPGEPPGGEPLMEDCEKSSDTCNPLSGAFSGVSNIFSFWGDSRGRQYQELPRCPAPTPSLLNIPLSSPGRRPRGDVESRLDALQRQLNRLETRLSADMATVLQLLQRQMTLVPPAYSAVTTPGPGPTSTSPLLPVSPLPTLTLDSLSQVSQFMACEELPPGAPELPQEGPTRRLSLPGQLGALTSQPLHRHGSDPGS
# Sequence of human Bradykinin B1 (P46663 whole entry): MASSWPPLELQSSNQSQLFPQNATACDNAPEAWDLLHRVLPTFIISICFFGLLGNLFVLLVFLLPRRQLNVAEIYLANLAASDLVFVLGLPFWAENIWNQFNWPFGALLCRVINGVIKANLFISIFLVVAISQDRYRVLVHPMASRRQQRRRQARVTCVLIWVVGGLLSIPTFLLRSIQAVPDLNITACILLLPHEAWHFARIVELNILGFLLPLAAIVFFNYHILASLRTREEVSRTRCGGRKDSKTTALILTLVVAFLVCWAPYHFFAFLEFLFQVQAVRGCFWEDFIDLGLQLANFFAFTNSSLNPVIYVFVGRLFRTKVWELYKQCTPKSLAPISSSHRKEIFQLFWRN
# Sequence of human Muscarinic M2 (P08172 whole entry): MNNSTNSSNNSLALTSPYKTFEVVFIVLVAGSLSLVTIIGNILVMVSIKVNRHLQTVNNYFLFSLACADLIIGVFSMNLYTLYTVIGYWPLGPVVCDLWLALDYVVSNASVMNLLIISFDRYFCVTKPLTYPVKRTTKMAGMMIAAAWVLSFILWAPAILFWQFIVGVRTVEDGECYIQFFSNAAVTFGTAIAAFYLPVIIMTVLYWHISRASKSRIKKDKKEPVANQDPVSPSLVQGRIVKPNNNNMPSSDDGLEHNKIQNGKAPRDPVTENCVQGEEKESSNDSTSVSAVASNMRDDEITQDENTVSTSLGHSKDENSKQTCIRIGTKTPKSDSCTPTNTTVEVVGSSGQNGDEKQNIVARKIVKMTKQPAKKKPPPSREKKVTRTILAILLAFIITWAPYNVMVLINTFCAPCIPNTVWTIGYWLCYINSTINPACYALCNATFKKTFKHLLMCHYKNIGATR
# Sequence of human Cannabinoid CB1 (P21554 whole entry): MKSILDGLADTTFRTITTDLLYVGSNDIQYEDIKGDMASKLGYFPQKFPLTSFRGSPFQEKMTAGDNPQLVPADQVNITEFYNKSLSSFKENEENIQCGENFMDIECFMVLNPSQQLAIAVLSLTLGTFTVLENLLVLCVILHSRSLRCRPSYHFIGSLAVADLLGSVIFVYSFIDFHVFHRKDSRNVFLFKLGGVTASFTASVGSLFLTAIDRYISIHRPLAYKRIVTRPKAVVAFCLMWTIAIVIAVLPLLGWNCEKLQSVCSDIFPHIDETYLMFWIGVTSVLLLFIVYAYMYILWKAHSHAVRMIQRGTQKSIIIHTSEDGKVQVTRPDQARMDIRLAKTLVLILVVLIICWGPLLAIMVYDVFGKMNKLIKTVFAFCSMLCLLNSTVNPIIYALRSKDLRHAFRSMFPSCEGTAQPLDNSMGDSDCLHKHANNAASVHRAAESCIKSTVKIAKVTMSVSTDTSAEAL
# Sequence of human Histamine H1 (P35367 whole entry): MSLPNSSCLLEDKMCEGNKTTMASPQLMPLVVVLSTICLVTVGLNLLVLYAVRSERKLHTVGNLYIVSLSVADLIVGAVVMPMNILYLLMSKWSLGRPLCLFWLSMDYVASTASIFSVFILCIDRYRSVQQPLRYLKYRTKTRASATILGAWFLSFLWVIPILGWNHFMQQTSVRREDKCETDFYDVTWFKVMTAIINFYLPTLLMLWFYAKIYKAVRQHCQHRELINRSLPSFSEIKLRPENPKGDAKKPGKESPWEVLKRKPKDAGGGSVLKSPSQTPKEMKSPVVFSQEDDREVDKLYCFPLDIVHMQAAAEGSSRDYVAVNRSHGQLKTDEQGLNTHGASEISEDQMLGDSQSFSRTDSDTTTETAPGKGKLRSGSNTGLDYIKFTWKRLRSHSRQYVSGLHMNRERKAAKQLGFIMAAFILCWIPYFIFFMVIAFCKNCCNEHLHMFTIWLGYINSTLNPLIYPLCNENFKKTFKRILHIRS
# Sequence of human Serotoninergic 5-HT1A (P08908 whole entry): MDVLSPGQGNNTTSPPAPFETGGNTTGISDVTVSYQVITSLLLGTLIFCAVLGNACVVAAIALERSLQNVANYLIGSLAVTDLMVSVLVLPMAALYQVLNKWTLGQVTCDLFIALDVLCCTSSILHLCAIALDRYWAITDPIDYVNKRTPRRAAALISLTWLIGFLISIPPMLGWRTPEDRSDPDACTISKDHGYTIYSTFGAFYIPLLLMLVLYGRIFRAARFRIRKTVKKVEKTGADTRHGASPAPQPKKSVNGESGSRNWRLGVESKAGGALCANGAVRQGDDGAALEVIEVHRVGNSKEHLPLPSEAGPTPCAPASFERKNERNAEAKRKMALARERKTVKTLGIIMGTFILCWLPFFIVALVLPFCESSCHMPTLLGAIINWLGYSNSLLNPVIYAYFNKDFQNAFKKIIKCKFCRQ
# Sequence of human Opioid μ (MOP) (P35372 whole entry): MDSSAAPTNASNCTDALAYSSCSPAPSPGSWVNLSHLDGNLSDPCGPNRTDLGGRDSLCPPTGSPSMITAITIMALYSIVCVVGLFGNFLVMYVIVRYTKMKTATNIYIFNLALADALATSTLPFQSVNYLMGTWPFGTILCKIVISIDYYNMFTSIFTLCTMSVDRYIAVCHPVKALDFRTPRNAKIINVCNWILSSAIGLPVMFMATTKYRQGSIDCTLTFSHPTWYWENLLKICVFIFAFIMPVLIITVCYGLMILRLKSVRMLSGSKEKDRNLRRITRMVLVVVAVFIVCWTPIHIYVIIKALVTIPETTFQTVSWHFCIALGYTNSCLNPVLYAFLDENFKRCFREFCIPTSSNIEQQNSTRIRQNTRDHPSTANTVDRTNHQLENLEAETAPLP
# Sequence of human Muscarinic M3 (P20309 whole entry): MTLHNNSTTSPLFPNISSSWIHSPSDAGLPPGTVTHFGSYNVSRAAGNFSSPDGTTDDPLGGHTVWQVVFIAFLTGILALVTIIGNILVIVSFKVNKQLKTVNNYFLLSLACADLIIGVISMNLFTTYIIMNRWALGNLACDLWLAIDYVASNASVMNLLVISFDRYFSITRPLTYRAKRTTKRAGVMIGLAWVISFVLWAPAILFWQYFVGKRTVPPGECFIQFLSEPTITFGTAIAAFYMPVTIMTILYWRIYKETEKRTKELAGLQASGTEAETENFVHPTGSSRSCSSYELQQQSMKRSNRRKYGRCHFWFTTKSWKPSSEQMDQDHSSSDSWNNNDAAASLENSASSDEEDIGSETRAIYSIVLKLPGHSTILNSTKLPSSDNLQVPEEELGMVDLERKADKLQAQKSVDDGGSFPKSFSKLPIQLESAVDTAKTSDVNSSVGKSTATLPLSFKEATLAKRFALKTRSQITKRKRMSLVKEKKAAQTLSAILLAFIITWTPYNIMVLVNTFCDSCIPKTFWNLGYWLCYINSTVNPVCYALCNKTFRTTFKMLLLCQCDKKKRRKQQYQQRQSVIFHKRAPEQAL
# Sequence of human Dopamine D2S (P14416 other isoform, or with tags, fused parts or gaps): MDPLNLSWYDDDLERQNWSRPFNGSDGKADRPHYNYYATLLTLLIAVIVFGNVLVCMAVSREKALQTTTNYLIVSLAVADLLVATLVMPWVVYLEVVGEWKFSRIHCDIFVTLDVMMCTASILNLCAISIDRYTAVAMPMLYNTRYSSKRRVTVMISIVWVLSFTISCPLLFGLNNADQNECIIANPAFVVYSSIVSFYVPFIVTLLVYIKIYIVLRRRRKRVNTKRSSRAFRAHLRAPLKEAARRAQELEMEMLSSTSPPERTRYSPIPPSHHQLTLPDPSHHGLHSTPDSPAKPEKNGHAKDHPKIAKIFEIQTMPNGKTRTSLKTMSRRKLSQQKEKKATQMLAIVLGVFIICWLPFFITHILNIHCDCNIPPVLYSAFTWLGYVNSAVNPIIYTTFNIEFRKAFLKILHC
structure (smiles),measurement,setting,value
"CCC(=O)c1sc(-c2cccc(F)c2)nc1[O-].[Na+] [Compound 2, sodium 2-(3-fluorophenyl)-5-propanoyl-1,3-thiazol-4-olate]",effect on mechanical allodynia,[1]; [38],significantly attenuated
same,"maximal activity, inhibition of mechanical allodynia",[1]; [39],about 50%
same,effect on cold allodynia,[2]; [38],significantly attenuated
same,"maximal activity, inhibition of cold allodynia",[2]; [39],about 50%
same,activity towards human Muscarinic M2,[3],inactive
same,activity towards human Muscarinic M3,[4],inactive
same,activity towards human Adrenergic β1,[5],inactive
same,activity towards human Adrenergic β2,[6],inactive
same,activity towards human Adrenergic α1A,[7],inactive
same,activity towards human Adrenergic α2A,[8],inactive
same,activity towards human Serotoninergic 5-HT1A,[9],inactive
same,activity towards human Histamine H1,[10],inactive
same,activity towards human Histamine H2,[11],inactive
same,activity towards human Cannabinoid CB1,[12],inactive
same,activity towards human Cannabinoid CB2,[13],inactive
same,activity towards human Bradykinin B1,[14],inactive
same,activity towards human Bradykinin B2,[15],inactive
same,activity towards human Dopamine D2S,[16],inactive
same,activity towards human Dopamine D3,[17],inactive
same,activity towards human Opioid δ2 (DOP),[18],inactive
same,activity towards human Opioid K (KOP),[19],inactive
same,activity towards human Opioid μ (MOP),[20],inactive
same,activity towards human Opioid NOP (ORL1),[21],inactive
same,activity towards human NK1,[22],inactive
same,IC50,[23],> 10 µM
same,IC50,[24],> 1000 µM
same,effect towards hERG channel,[24],none effect
same,IC50,[25],> 30 µM
same,IC50,[26],> 30 µM
same,IC50,[27],> 30 µM
same,IC50,[28],> 30 µM
same,IC50,[29],> 30 µM
same,fraction unbound,[30],0.0129
same,fraction unbound,[31],0.025
same,microsomal CLint,[32],29.4 µL/min/mg
same,Rat Plasma Stability (% remaining),[33]; at 30 min,98.2%
same,Rat Plasma Stability (% remaining),[33]; at 60 min,80.3%
same,Vds,"[34]; intravenous administration, IV 5 mg/kg",1.78 L/kg
same,CL,[34]; [40],6.41 mL/min/kg
same,t1/2,[34]; [40],2.94 h
same,clearance,[34]; [41],6.81 mL/min/kg
same,half-life,[34]; [41],3.01 h
same,AUC,[34]; [42],26100 ng·h/mL
same,Cmax,[34]; [42],10300 ng/mL
same,Tmax,[34]; [42],0.25 h
same,half-life,[34]; [42],2.94 h
same,bioavailability,"[34]; plasma, oral administration, PO 10 mg/kg vs IV 5 mg/kg",100%
same,effect towards any human cytochrome isoform,[35],no effect
same,pKa,[36],4.18
same,IC50,[37],0.028 µM
